In US12252524B2, “GIP/GLP1 co-agonist compounds” (Eli Lilly and Company, priority 2018, dated 2025):
Numbered stars: 1 amine (or outer) side, 2 acyl side, 3 side chain; on linkers, the order of the positions; unused ones are H or OH. Square brackets hold non-standard residues; d marks the D form. Side chains are listed from the residue outwards. Peptide text beside a SMILES is read from it. * marks the point of attachment. C20 diacid = O=C(O)CCCCCCCCCCCCCCCCCCC(=O)*; γGlu = O=C(O)[C@H](CCC(=O)[*:2])N[*:1]; αMeL = CC(C)C[C@](C)(N)C(=O)O; AEEA = NCCOCCOCC(=O)O; Aib = CC(C)(N)C(=O)O

Legend:
[1] = molecular target: human GLP-1 receptor (GLP-1R) (Homo sapiens, UniProt P43220); assay: cAMP pharmacological functional assay in presence of casein, hGLP-1R; type: cell-based; conditions: HEK293 cells expressing hGLP-1R, 0.1% Casein, geometric mean; read-out: hGLP1R cAMP Rel EC50 nM (SEM, n)
human GLP-1R = human GLP-1R (Homo sapiens, UniProt P43220); assay: [125I]-GLP-1 binding (SPA), human GLP-1 receptor; design: expressed in transfected cells; crude membranes; conditions: read-out: hGLP1R Ki, (nM) (SEM, n)
How it was run: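 Frozen cell pellets are lysed on ice in hypotonic Tris buffer, pH 7.5, homogenized, and centrifuged to a membrane pellet resuspended at about 1 to 3 mg/mL. Binding is then measured in HEPES-based buffer at pH 7.4, and curves are fitted to give IC50 and Ki.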

[2] = molecular target: T1, gastric inhibitory peptide receptor (GIPR) (Homo sapiens, UniProt P48546); assay: cAMP pharmacological functional assay in presence of casein, hGIPR; type: cell-based; conditions: HEK293 cells expressing hGIPR, 0.1% Casein, geometric mean; read-out: hGIPR cAMP Rel EC50 nM (SEM, n)
T1 sequence (P48546 22-466): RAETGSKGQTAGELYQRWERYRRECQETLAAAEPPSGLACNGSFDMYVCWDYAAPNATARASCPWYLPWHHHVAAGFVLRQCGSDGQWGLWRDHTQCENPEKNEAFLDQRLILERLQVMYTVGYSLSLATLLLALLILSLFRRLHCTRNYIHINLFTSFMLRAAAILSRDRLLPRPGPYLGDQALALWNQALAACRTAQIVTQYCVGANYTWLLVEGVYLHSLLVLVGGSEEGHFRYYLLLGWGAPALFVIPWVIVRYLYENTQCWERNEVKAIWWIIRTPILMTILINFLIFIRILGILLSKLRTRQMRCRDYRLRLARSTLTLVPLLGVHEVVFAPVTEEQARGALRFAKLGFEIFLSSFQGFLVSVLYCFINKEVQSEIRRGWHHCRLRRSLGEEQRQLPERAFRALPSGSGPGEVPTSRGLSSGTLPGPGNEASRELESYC

human Gcg receptor = molecular target: T2, human Gcg receptor (Homo sapiens, UniProt P47871); assay: [125I]-Glucagon binding (SPA), human Gcg receptor; conditions: read-out: hGLcgR Ki, nM (SEM, n)
T2 construct: expressed in transfected cells; crude membranes
How it was run: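 Crude membranes from cells expressing the receptor, prepared by hypotonic lysis in 50 mM Tris HCl pH 7.5 with protease inhibitors, homogenization and differential centrifugation, were used in a WGA-bead SPA. Binding buffer: 25 mM HEPES pH 7.4, 2.5 mM CaCl2, 1 mM MgCl2, bacitracin, Tween-20.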

human GIP receptor = molecular target: T3, human GIP receptor (Homo sapiens, UniProt P48546); assay: [125I]-GIP binding (SPA), human GIP receptor; conditions: read-out: hGIPR Ki, nM (SEM, n)
T3 construct: expressed in transfected cells; crude membranes
T3 sequence (P48546 22-466): T1 sequence (P48546 22-466)

T2 sequence (P47871 26-477): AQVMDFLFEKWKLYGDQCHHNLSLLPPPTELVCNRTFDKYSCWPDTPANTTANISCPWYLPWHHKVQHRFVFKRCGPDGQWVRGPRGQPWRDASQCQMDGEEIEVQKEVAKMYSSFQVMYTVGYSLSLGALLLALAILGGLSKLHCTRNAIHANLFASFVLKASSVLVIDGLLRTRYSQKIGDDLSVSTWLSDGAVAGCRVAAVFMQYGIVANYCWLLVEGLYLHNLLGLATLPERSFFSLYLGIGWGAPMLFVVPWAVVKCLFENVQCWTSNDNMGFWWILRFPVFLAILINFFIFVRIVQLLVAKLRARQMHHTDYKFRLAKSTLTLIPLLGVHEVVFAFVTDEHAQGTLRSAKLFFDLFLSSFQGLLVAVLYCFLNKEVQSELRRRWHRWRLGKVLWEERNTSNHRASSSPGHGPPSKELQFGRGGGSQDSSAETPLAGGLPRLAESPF
human GLP-1 receptor (GLP-1R), sequence (P43220 24-463): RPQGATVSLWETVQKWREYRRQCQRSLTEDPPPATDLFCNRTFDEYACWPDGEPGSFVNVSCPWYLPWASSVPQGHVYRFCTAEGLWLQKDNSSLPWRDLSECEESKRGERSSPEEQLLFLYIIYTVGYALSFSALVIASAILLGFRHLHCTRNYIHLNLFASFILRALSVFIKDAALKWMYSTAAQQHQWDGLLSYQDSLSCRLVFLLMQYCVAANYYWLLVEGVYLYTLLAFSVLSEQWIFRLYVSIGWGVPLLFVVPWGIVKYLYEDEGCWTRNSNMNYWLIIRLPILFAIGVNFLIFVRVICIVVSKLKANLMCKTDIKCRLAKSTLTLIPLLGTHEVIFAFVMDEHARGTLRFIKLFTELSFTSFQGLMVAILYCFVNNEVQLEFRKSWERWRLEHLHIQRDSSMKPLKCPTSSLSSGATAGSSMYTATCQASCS
human GLP-1R, sequence (P43220 24-463): as above

SMILES | EC50 [1] [nM] | Ki (human GLP-1R) [nM] | EC50 [2] [nM] | Ki (human Gcg receptor) [nM] | Ki (human GIP receptor) [nM]
CC[C@H](C)[C@H](NC(=O)[C@H](CC(C)C)NC(=O)[C@H](Cc1ccc(O)cc1)NC(=O)[C@H](CCC(=O)O)NC(=O)[C@@H](NC(=O)[C@H](Cc1ccccc1)NC(=O)[C@H](C)NC(=O)C(C)(C)NC(=O)[C@H](CCC(N)=O)NC(=O)[C@H](C)NC(=O)[C@H](CCCCNC(=O)COCCOCCNC(=O)COCCOCCNC(=O)CC[C@H](NC(=O)CCCCCCCCCCCCCCCCCCC(=O)O)C(=O)O)NC(=O)[C@H](CCC(=O)O)NC(=O)[C@H](CC(=O)O)NC(=O)[C@H](CC(C)C)NC(=O)[C@](C)(CC(C)C)NC(=O)[C@@H](NC(=O)[C@H](CO)NC(=O)[C@H](Cc1ccc(O)cc1)NC(=O)[C@H](CC(=O)O)NC(=O)[C@H](CO)NC(=O)[C@@H](NC(=O)[C@H](Cc1ccccc1)NC(=O)[C@@H](NC(=O)CNC(=O)[C@H](CCC(=O)O)NC(=O)C(C)(C)NC(=O)[C@@H](N)Cc1ccc(O)cc1)[C@@H](C)O)[C@@H](C)O)[C@@H](C)CC)[C@@H](C)CC)C(=O)N[C@@H](CCC(=O)O)C(=O)NCC(=O)NCC(N)=O [Example 63] (H-Y[Aib]EGTFTSDYSI[αMeL]LDEK([AEEA-AEEA-γGlu-C20 diacid])AQ[Aib]AFIEYLIEGG-NH2) | 0.19 | 7.79 | 0.0925 | 273 | 0.141
CC[C@H](C)[C@H](NC(=O)[C@H](CC(C)C)NC(=O)[C@H](Cc1ccc(O)cc1)NC(=O)[C@H](CCC(=O)O)NC(=O)[C@@H](NC(=O)[C@H](Cc1ccccc1)NC(=O)[C@H](C)NC(=O)C(C)(C)NC(=O)[C@H](CCC(N)=O)NC(=O)[C@H](C)NC(=O)[C@H](CCCCNC(=O)COCCOCCNC(=O)COCCOCCNC(=O)CC[C@H](NC(=O)CCCCCCCCCCCCCCCCCCC(=O)O)C(=O)O)NC(=O)[C@@H](NC(=O)[C@H](CC(=O)O)NC(=O)[C@H](CC(C)C)NC(=O)[C@](C)(CC(C)C)NC(=O)[C@@H](NC(=O)[C@H](CO)NC(=O)[C@H](Cc1ccc(O)cc1)NC(=O)[C@H](CC(=O)O)NC(=O)[C@H](CO)NC(=O)[C@@H](NC(=O)[C@H](Cc1ccccc1)NC(=O)[C@@H](NC(=O)CNC(=O)[C@H](CCC(=O)O)NC(=O)C(C)(C)NC(=O)[C@@H](N)Cc1ccc(O)cc1)[C@@H](C)O)[C@@H](C)O)[C@@H](C)CC)[C@@H](C)O)[C@@H](C)CC)C(=O)N[C@@H](CCC(=O)O)C(=O)NCC(=O)NCC(N)=O [Example 65] (H-Y[Aib]EGTFTSDYSI[αMeL]LDTK([AEEA-AEEA-γGlu-C20 diacid])AQ[Aib]AFIEYLIEGG-NH2; N-terminus assumed) | 0.289 | 4.53 | 0.143 | 194 | 0.0643
CC[C@H](C)[C@H](NC(=O)[C@H](Cc1ccccc1)NC(=O)[C@H](C)NC(=O)C(C)(C)NC(=O)[C@H](CCC(N)=O)NC(=O)[C@H](C)NC(=O)[C@H](CCCCNC(=O)COCCOCCNC(=O)COCCOCCNC(=O)CC[C@H](NC(=O)CCCCCCCCCCCCCCCCCCC(=O)O)C(=O)O)NC(=O)[C@H](CCC(=O)O)NC(=O)[C@H](CC(=O)O)NC(=O)[C@H](CC(C)C)NC(=O)[C@](C)(CC(C)C)NC(=O)[C@@H](NC(=O)[C@H](CO)NC(=O)[C@H](Cc1ccc(O)cc1)NC(=O)[C@H](CC(=O)O)NC(=O)[C@H](CO)NC(=O)[C@@H](NC(=O)[C@H](Cc1ccccc1)NC(=O)[C@@H](NC(=O)CNC(=O)[C@H](CCC(=O)O)NC(=O)C(C)(C)NC(=O)[C@@H](N)Cc1ccc(O)cc1)[C@@H](C)O)[C@@H](C)O)[C@@H](C)CC)C(=O)N[C@@H](CCC(=O)O)C(=O)N[C@@H](Cc1ccc(O)cc1)C(=O)N[C@@H](CC(C)C)C(=O)N[C@@H](CC(C)C)C(=O)N[C@@H](CCC(=O)O)C(=O)NCC(=O)NCC(=O)N1CCC[C@H]1C(=O)N[C@@H](CO)C(=O)N[C@@H](CO)C(=O)NCC(=O)N[C@@H](C)C(=O)N1CCC[C@H]1C(=O)N1CCC[C@H]1C(=O)N1CCC[C@H]1C(=O)N[C@@H](CO)C(N)=O [Example 66] (H-Y[Aib]EGTFTSDYSI[αMeL]LDEK([AEEA-AEEA-γGlu-C20 diacid])AQ[Aib]AFIEYLLEGGPSSGAPPPS-NH2) | 0.285 | 7.53 | 0.0743 | 93.7 | 0.106

Other lines, results leading:

EC50 [1] [nM] | Ki (human GLP-1R) [nM] | EC50 [2] [nM] | Ki (human Gcg receptor) [nM] | Ki (human GIP receptor) [nM] | SMILES
0.159 | 2.03 | 0.0601 | 168 | 0.0545 | CC[C@H](C)[C@H](NC(=O)[C@H](CC(C)C)NC(=O)[C@H](Cc1ccc(O)cc1)NC(=O)[C@H](CCC(=O)O)NC(=O)[C@@H](NC(=O)[C@H](Cc1ccccc1)NC(=O)[C@H](C)NC(=O)C(C)(C)NC(=O)[C@H](CCC(N)=O)NC(=O)[C@H](C)NC(=O)[C@H](CCCCNC(=O)COCCOCCNC(=O)COCCOCCNC(=O)CC[C@H](NC(=O)CCCCCCCCCCCCCCCCCCC(=O)O)C(=O)O)NC(=O)[C@H](CCCCN)NC(=O)[C@H](CC(=O)O)NC(=O)[C@H](CC(C)C)NC(=O)[C@](C)(CC(C)C)NC(=O)[C@@H](NC(=O)[C@H](CO)NC(=O)[C@H](Cc1ccc(O)cc1)NC(=O)[C@H](CC(=O)O)NC(=O)[C@H](CO)NC(=O)[C@@H](NC(=O)[C@H](Cc1ccccc1)NC(=O)[C@@H](NC(=O)CNC(=O)[C@H](CCC(=O)O)NC(=O)C(C)(C)NC(=O)[C@@H](N)Cc1ccc(O)cc1)[C@@H](C)O)[C@@H](C)O)[C@@H](C)CC)[C@@H](C)CC)C(=O)N[C@@H](CCC(=O)O)C(=O)NCC(=O)NCC(N)=O [Example 62] (H-Y[Aib]EGTFTSDYSI[αMeL]LDKK([AEEA-AEEA-γGlu-C20 diacid])AQ[Aib]AFIEYLIEGG-NH2)
0.172 | 4.86 | 0.0916 | 260 | 0.0866 | CC[C@H](C)[C@H](NC(=O)[C@H](CC(C)C)NC(=O)[C@H](Cc1ccc(O)cc1)NC(=O)[C@H](CCC(=O)O)NC(=O)[C@@H](NC(=O)[C@H](Cc1ccccc1)NC(=O)[C@H](C)NC(=O)C(C)(C)NC(=O)[C@H](CCC(N)=O)NC(=O)[C@H](C)NC(=O)[C@H](CCCCNC(=O)COCCOCCNC(=O)COCCOCCNC(=O)CC[C@H](NC(=O)CCCCCCCCCCCCCCCCCCC(=O)O)C(=O)O)NC(=O)[C@H](CO)NC(=O)[C@H](CC(=O)O)NC(=O)[C@H](CC(C)C)NC(=O)[C@](C)(CC(C)C)NC(=O)[C@@H](NC(=O)[C@H](CO)NC(=O)[C@H](Cc1ccc(O)cc1)NC(=O)[C@H](CC(=O)O)NC(=O)[C@H](CO)NC(=O)[C@@H](NC(=O)[C@H](Cc1ccccc1)NC(=O)[C@@H](NC(=O)CNC(=O)[C@H](CCC(=O)O)NC(=O)C(C)(C)NC(=O)[C@@H](N)Cc1ccc(O)cc1)[C@@H](C)O)[C@@H](C)O)[C@@H](C)CC)[C@@H](C)CC)C(=O)N[C@@H](CCC(=O)O)C(=O)NCC(=O)NCC(N)=O [Example 64] (H-Y[Aib]EGTFTSDYSI[αMeL]LDSK([AEEA-AEEA-γGlu-C20 diacid])AQ[Aib]AFIEYLIEGG-NH2)
